The nature of data set [1]: Solubility testing of peptides in buffer. The class given is physicochemical.
A short description of data set [2]: Stability testing of peptides in rat plasma or blood. It is filed as in vitro ADME. Conditions: 37° C.; for Rat plasma stability % remaining T = 0: rat plasma or blood, T = 0 (reference), 5 μM. In short, it runs like this: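 Peptide at 5 µM final was incubated at 37 °C in heparinized rat or human plasma or blood, sampled up to 4 h, and extracted with acetonitrile/1% TFA. HPLC peak areas relative to t0 give % remaining peptide.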

The nature of data set [3]: Pharmacokinetic (PK) determination after i.v. or s.c. administration to rats. The class given is in vivo, Sprague Dawley rats. Conditions: Rat PK; for C0 / half-life: iv; for C0 / half-life / T½: 1 mg/kg i.v.; for C0: extrapolated plasma concentration at t=0, read-out: C0; for half-life: read-out: T½ (converted); for Cmax / Tmax: 3 mg/kg s.c.; for bioavailability: subcutaneous. The procedure, abridged: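 Sprague Dawley rats received peptide in PBS at 1 mg/kg i.v. or 3 mg/kg s.c., dose corrected for salts, solvent and purity. Plasma analysed by LC/MS after protein precipitation; non-compartmental PK, BLQ values set to zero, F% as dose-corrected s.c./i.v. AUC ratio.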

Setting [4] is: acetate buffer 50 mM pH 4.5, target solubility 10.0 mg/ml, read-out: Solubility Acetate buffer pH 4.5.
Where [5] appears, read: phosphate buffer 50 mM pH 7.4, target solubility 10.0 mg/ml, read-out: Solubility phosphate buffer pH 7.4.
The mark [6] stands for this setting: whole blood, rat blood, read-out: Rat stability in blood % remaining 1 h.
The mark [7] stands for this setting: whole blood, rat blood, read-out: Rat stability in blood % remaining 4 h.
[8] abbreviates: Sprague Dawley, plasma, 3 mg/kg s.c. vs 1 mg/kg i.v., dose-corrected AUC ratio.
Setting [9] is: rat plasma, read-out: Rat plasma stability % remaining 1 h.
[10] abbreviates: rat plasma, read-out: Rat plasma stability % remaining 4 h.
Where [11] appears, read: acetate buffer, pH 4.5, read-out: Solubility Acetate buffer pH 4.5.
[12] abbreviates: phosphate buffer, pH 7.4, read-out: Solubility phosphate buffer pH 7.4.

Values after ≈ are worked out from the molar mass of the structure shown. Like-named read-outs stand apart in the source and are kept apart here. *1 amine or outer side, *2 acyl side, *3 side chain or, on linkers, in order; H or OH if unused. Where a SMILES comes first, the peptide text is derived from it. Side-chain parts run from the residue outwards. [ ]: non-standard residue; d: D form. The star is where a group is joined. PEG12 = NCCOCCOCCOCCOCCOCCOCCOCCOCCOCCOCCOCCOCCC(=O)O; γGlu = O=C(O)[C@H](CCC(=O)[*:2])N[*:1]; Stearoyl = CCCCCCCCCCCCCCCCCC(=O)*; Palmitoyl = CCCCCCCCCCCCCCCC(=O)*; αMeK = C[C@](N)(CCCCN)C(=O)O; Nle = CCCC[C@H](N)C(=O)O; AEEA = NCCOCCOCC(=O)O; Aib = CC(C)(N)C(=O)O

As for `CCCCCCCCCCCCCCCC(=O)N[C@@H](CCC(=O)N[C@@H](CCC(=O)N[C@@H](CCC(=O)N[C@@H](CCC(=O)NCCCC[C@H](NC(=O)COCCOCCNC(=O)COCCOCCNC(=O)COCCOCCNC(=O)COCCOCCNC(=O)[C@H](CCCCNC(C)=O)NC(=O)[C@H](C)NC(=O)[C@H](CCCNC(=N)N)NC(=O)[C@](C)(CCCCN)NC(=O)[C@H](CO)NC(=O)[C@H](Cc1ccccc1)NC(=O)[C@@H](NC(=O)[C@H](CO)NC(=O)[C@H](CCC(N)=O)NC(=O)CNC(=O)[C@H](CCC(=O)O)NC(=O)C(C)(C)NC(=O)C(C)(C)NC(=O)[C@@H](NC(=O)[C@H](CCCCNC(C)=O)NC(=O)[C@H](C)NC(=O)[C@H](CCCNC(=N)N)NC(=O)[C@@H](NC(=O)[C@H](CCCCN)NC(=O)[C@H](CCC(=O)O)NC(=O)[C@H](CCCNC(=N)N)NC(=O)CNC(=O)[C@H](CCC(=O)O)NC(=O)[C@H](CC(C)C)NC(C)=O)C(C)C)[C@@H](C)CC)[C@@H](C)O)C(N)=O)C(=O)O)C(=O)O)C(=O)O)C(=O)O` [compound 170] (Ac-LEGREKVRAK(Ac)I[Aib][Aib]EGQSTFS[αMeK]RAK(Ac)[AEEA][AEEA][AEEA][AEEA]K([γGlu-γGlu-γGlu-γGlu-Palmitoyl])-NH2), in data set [1] (setting [4]), the solubility is 9800 µg/mL (≈ 2280 µM). Further, the solubility in data set [1] (setting [5]) is greater than 10000 µg/mL. Further, in data set [2], the “Rat plasma stability % remaining T = 0” value is recorded as 100%. Besides, in data set [2] (setting [6]), the amount remaining at 1 h, 5 µM is 107%. In addition, the amount remaining at 4 h, 5 µM in data set [2] (setting [7]) was 99%. The C0 in data set [3] (Sprague Dawley) is 7760 nM. Also, the half-life in data set [3] (Sprague Dawley, plasma) was 10 h. Also, in data set [3] (Sprague Dawley, plasma, sc), the Cmax came out at 780 nM and the Tmax stood at 4 h. Besides, the bioavailability in data set [3] (setting [8]) was 87%.

On to `CCCCCCCCCCCCCCCCCC(=O)N[C@@H](CCC(=O)N[C@@H](CCC(=O)N[C@@H](CCC(=O)NCCOCCOCC(=O)NCCOCCOCC(=O)NCCOCCOCC(=O)NCCCC[C@H](NC(=O)[C@H](CCCCNC(C)=O)NC(=O)[C@H](CCCCN)NC(=O)[C@H](CCCNC(=N)N)NC(=O)C(C)(C)NC(=O)[C@H](CO)NC(=O)[C@H](Cc1c[nH]c2ccccc12)NC(=O)[C@@H](NC(=O)[C@H](CO)NC(=O)[C@H](CCCC)NC(=O)CNC(=O)[C@H](CCC(=O)O)NC(=O)C(C)(C)NC(=O)C(C)(C)NC(=O)[C@@H](NC(=O)[C@H](CCCCNC(C)=O)NC(=O)[C@H](C)NC(=O)[C@H](CCCNC(=N)N)NC(=O)[C@@H](NC(=O)[C@H](CCCCN)NC(=O)[C@H](CCC(=O)O)NC(=O)[C@H](CCCNC(=N)N)NC(=O)CNC(=O)[C@H](CCC(=O)O)NC(=O)[C@H](CC(C)C)NC(C)=O)C(C)C)[C@@H](C)CC)[C@@H](C)O)C(N)=O)C(=O)O)C(=O)O)C(=O)O` [compound 81] (Ac-LEGREKVRAK(Ac)I[Aib][Aib]EG[Nle]STWS[Aib]RKK(Ac)K([AEEA-AEEA-AEEA-γGlu-γGlu-γGlu-Stearoyl])-NH2), for which the solubility in data set [1] (acetate buffer 50 mM pH 4.5, target solubility 15.0 mg/ml, read-out: Solubility Acetate buffer pH 4.5) was 11900 µg/mL (≈ 2920 µM). For the same compound, the “Rat plasma stability % remaining T = 0” value in data set [2] was found to be 100%. Besides, the amount remaining at 1 h, 5 µM in data set [2] (setting [9]) was found to be 101%. In data set [2] (setting [10]), the share remaining at 4 h, 5 µM stood at 114%. In data set [3], the “T½” value stood at 3.90 h and the peak level (Cmax) was 1500 nM. For the same compound, the F % in data set [3] (3 mg/kg s.c. vs 1 mg/kg i.v., dose-corrected AUC ratio) is given as 74%. For the same compound, in data set [3] (Sprague Dawley), the C0 was 2600 nM. Moreover, in data set [3] (Sprague Dawley, plasma, sc), the time to peak (Tmax) was determined as 8 h.

`CCCCCCCCCCCCCCCC(=O)N[C@@H](CCC(=O)N[C@@H](CCC(=O)N[C@@H](CCC(=O)N[C@@H](CCC(=O)NCCCC[C@H](NC(=O)COCCOCCNC(=O)COCCOCCNC(=O)COCCOCCNC(=O)COCCOCCNC(=O)[C@H](CCCCNC(C)=O)NC(=O)[C@H](C)NC(=O)[C@H](CCCNC(=N)N)NC(=O)[C@](C)(CCCCN)NC(=O)[C@H](CO)NC(=O)[C@H](Cc1ccccc1)NC(=O)[C@@H](NC(=O)[C@H](CO)NC(=O)[C@H](CCCC)NC(=O)CNC(=O)[C@H](CCC(=O)O)NC(=O)C(C)(C)NC(=O)C(C)(C)NC(=O)[C@@H](NC(=O)[C@H](CCCCNC(C)=O)NC(=O)[C@H](C)NC(=O)[C@H](CCCNC(=N)N)NC(=O)[C@@H](NC(=O)[C@H](CCCCN)NC(=O)[C@H](CCC(=O)O)NC(=O)[C@H](CCCNC(=N)N)NC(=O)CNC(=O)[C@H](CCC(=O)O)NC(=O)[C@H](CC(C)C)NC(C)=O)C(C)C)[C@@H](C)CC)[C@@H](C)O)C(N)=O)C(=O)O)C(=O)O)C(=O)O)C(=O)O` [compound 150] (Ac-LEGREKVRAK(Ac)I[Aib][Aib]EG[Nle]STFS[αMeK]RAK(Ac)[AEEA][AEEA][AEEA][AEEA]K([γGlu-γGlu-γGlu-γGlu-Palmitoyl])-NH2): in data set [1] (setting [4]), the solubility stood at 1500 µg/mL (≈ 351 µM). For the same compound, the solubility in data set [1] (setting [5]) was greater than 10000 µg/mL. For the same compound, in data set [2], the “Rat plasma stability % remaining T = 0” value is recorded as 100%. In data set [2] (setting [6]), the share remaining at 1 h, 5 µM came out at 86%. Moreover, the amount remaining at 4 h, 5 µM in data set [2] (setting [7]) was 90%. Also, the C0 in data set [3] (Sprague Dawley) was 3600 nM. Also, the half-life in data set [3] (Sprague Dawley, plasma) was 5.7 h. In data set [3] (Sprague Dawley, plasma, sc), the highest level (Cmax) was 2100 nM and the Tmax was determined as 8 h. The bioavailability in data set [3] (setting [8]) stood at 76%.

With `CCCCCCCCCCCCCCCC(=O)N[C@@H](CCC(=O)N[C@@H](CCC(=O)N[C@@H](CCC(=O)NCCOCCOCC(=O)NCCOCCOCC(=O)NCCCC[C@H](NC(=O)[C@H](CCCCN)NC(=O)[C@H](CCCNC(=N)N)NC(=O)C(C)(C)NC(=O)[C@H](CO)NC(=O)[C@H](Cc1c[nH]c2ccccc12)NC(=O)[C@@H](NC(=O)[C@H](CO)NC(=O)[C@H](CCCC)NC(=O)CNC(=O)[C@H](CCC(=O)O)NC(=O)C(C)(C)NC(=O)C(C)(C)NC(=O)[C@@H](NC(=O)[C@H](CCC(N)=O)NC(=O)[C@H](C)NC(=O)[C@H](CCCNC(=N)N)NC(=O)[C@@H](NC(=O)[C@H](CCCCN)NC(=O)[C@H](CCC(=O)O)NC(=O)[C@H](CCCNC(=N)N)NC(=O)CNC(=O)[C@H](CCC(=O)O)NC(=O)[C@H](CC(C)C)NC(C)=O)C(C)C)[C@@H](C)CC)[C@@H](C)O)C(N)=O)C(=O)O)C(=O)O)C(=O)O` [compound 58] (Ac-LEGREKVRAQI[Aib][Aib]EG[Nle]STWS[Aib]RKK([AEEA-AEEA-γGlu-γGlu-γGlu-Palmitoyl])-NH2), the solubility in data set [1] (setting [11]) was 5700 µg/mL (≈ 1550 µM). The solubility in data set [1] (setting [12]) was found to be 5700 µg/mL (≈ 1550 µM). Besides, in data set [2], the “Rat plasma stability % remaining T = 0” value is recorded as 100%. The amount remaining at 1 h, 5 µM in data set [2] (setting [9]) was found to be 96%. For the same compound, the fraction remaining at 4 h, 5 µM in data set [2] (setting [10]) was found to be 101%. Further, the C0 in data set [3] (Sprague Dawley) was 4020 nM. In addition, the half-life in data set [3] (Sprague Dawley, plasma) was 7.9 h. In addition, in data set [3] (Sprague Dawley, plasma, sc), the peak concentration (Cmax) is 1340 nM and the time to peak (Tmax) turned out to be 6 h. In addition, the bioavailability in data set [3] (setting [8]) turned out to be 55%.

Take `CCCCCCCCCCCCCCCCCC(=O)N[C@@H](CCC(=O)N[C@@H](CCC(=O)N[C@@H](CCC(=O)NCCCC[C@H](NC(=O)CCOCCOCCOCCOCCOCCOCCOCCOCCOCCOCCOCCOCCNC(=O)[C@H](CCCCNC(C)=O)NC(=O)[C@H](CCCCN)NC(=O)[C@H](CCCNC(=N)N)NC(=O)C(C)(C)NC(=O)[C@H](CO)NC(=O)[C@H](Cc1c[nH]c2ccccc12)NC(=O)[C@@H](NC(=O)[C@H](CO)NC(=O)[C@H](CCCC)NC(=O)CNC(=O)[C@H](CCC(=O)O)NC(=O)C(C)(C)NC(=O)C(C)(C)NC(=O)[C@@H](NC(=O)[C@H](CCCCNC(C)=O)NC(=O)[C@H](C)NC(=O)[C@H](CCCNC(=N)N)NC(=O)[C@@H](NC(=O)[C@H](CCCCN)NC(=O)[C@H](CCC(=O)O)NC(=O)[C@H](CCCNC(=N)N)NC(=O)CNC(=O)[C@H](CCC(=O)O)NC(=O)[C@H](CC(C)C)NC(C)=O)C(C)C)[C@@H](C)CC)[C@@H](C)O)C(N)=O)C(=O)O)C(=O)O)C(=O)O` [compound 33] (Ac-LEGREKVRAK(Ac)I[Aib][Aib]EG[Nle]STWS[Aib]RKK(Ac)[PEG12]K([γGlu-γGlu-γGlu-Stearoyl])-NH2): in data set [1] (setting [11]), the solubility is 5400 µg/mL (≈ 1280 µM). Also, the solubility in data set [1] (setting [12]) was 5400 µg/mL (≈ 1280 µM). Also, the “Rat plasma stability % remaining T = 0” value in data set [2] worked out at 100%. For the same compound, the amount remaining at 1 h, 5 µM in data set [2] (setting [9]) was determined as 93%. Besides, in data set [2] (setting [10]), the fraction remaining at 4 h, 5 µM is 80%. In addition, in data set [3], the “T½” value came to 4.30 h. Further, in data set [3] (Sprague Dawley), the C0 is 4200 nM. Also, in data set [3] (Sprague Dawley, plasma, sc), the Cmax amounted to 2500 nM and the Tmax is 8 h. The bioavailability in data set [3] (setting [8]) was 60%.

Values taken from patent publication US10988523B2, “Modified lipidated Relaxin B chain peptides and their therapeutic use” (Sanofi, priority 2018, dated 2021).
